Measurements as given in PMC12610721, “The Action of Cannabidiol on Doxycycline Cytotoxicity in Human Cells—In Vitro Study” (Molecules, 2025).
Converted amounts (≈) assume the structure as drawn. “Also recorded” adds a separate entry of the source. Like-named read-outs stand apart in the source and are kept apart here.

What was measured:
[1] = tested on: HepG2 cells; design: method as in PMID 32867402; details: cited from earlier work
[2] = tested on: normal HK-2 cells; design: method as in PMID 34644207; details: HK-2, 20 µg/mL, without triggering apoptosis; cited from earlier work
[3] = tested on: various human cell lines; details: cited from earlier work
[4] = tested on: HepG2 cells; details: 72 h exposure, cited from earlier work
[5] = tested on: HEK-293 cells; assay: apoptosis and necrosis (Hoechst 33342 + propidium iodide staining); assay type: cell-based, human; details: HEK-293, 72 h
Protocol: The type and extent of cell death in the control and treated cultures were evaluated using fluorochrome staining with Hoechst 33342 and propidium iodide to assess apoptosis and necrosis [88]. Dead cells were analyzed morphologically using a fluorescence microscope (Axiovert 200 M, Zeiss, Oberkochen, Germany). Cells with pink, fluorescent nuclei were considered necrotic, whereas cells with blue, fluorescent nuclei (fragmented and/or condensed chromatin) were classified as apoptotic.

[6] = tested on: SH-SY5Y human neuroblastoma cells; design: method as in PMID 33429042; details: 24 h, 4 ng/mL to 4.4 µg/mL; cited from earlier work
[7] = tested on: HEK-293 cells; assay: series of five cytotoxicity assays (MTT, NRU, TPC, LDH, BrdU), summary; assay type: cell-based; details: Homo sapiens, HEK293, 72 h, read-out: IC50 values, range depending on the cellular parameter assessed
[8] = tested on: HepG2 cells; assay: as above; assay type: cell-based; details: Homo sapiens, HepG2, 72 h, across MTT, read-out: IC50 values, range depending on the cellular parameter evaluated
Protocol: The cultured cells, for 72 h, were exposed to doxycycline (at concentrations ranging from 1.56 μg/mL to 200 μg/mL), both alone and in combination with CBD: 1.56 μg/mL (DOX + C1) and 3.125 μg/mL (DOX + C2) at two non-toxic doses (Supplementary Materials). A series of cytotoxicity assays included assessments of mitochondrial activity, lysosomal activity, cell membrane integrity, DNA synthesis, and cell proliferation.
The metabolic activity of viable cells was assessed by measuring dehydrogenase activity [82]. After exposing the cell cultures to the test compounds, 10 µL of MTT solution (5 mg/mL in PBS) was added to each well of a 96-well plate. […] The plate was shaken for 15 min at room temperature and transferred to a Synergy 2 Multi-Mode Microplate Reader (BioTek® Instruments Inc., Winooski, VT, USA) to measure absorbance at 570 nm, using a blank as reference. Cytotoxicity was expressed as a percentage relative to the negative control [83].
This method is based on staining viable cells with neutral red, a dye that readily diffuses through the plasma membrane and accumulates in lysosomes [84]. […] After 10 min of shaking, the absorbance of the extracted dye was measured at 540 nm using a Synergy 2 Multi-Mode Microplate Reader (BioTek® Instruments Inc., Winooski, VT, USA), with a blank as reference. Cytotoxicity was expressed as a percentage relative to the negative control [83]. […]

[9] = tested on: HEK-293 cells; design: method as in earlier work; details: cited from earlier work; for IC50: HEK-293, 48 h of exposure
[10] = tested on: renal cancer cells; design: method as in PMID 34644207; details: cited from earlier work
[11] = tested on: human pluripotent stem cell-derived hepatocytes; details: cited from earlier work
[12] = tested on: SH-SY5Y cells; design: method as in earlier work; details: 48 h exposure, cited from earlier work
[13] = tested on: HepG2 cells; assay: mitochondrial activity (MTT assay)
Protocol: (§1) This innovative study evaluated the effects of cannabidiol (Cannabis sativa L.) on doxycycline-induced toxicity using three cell cultures: neural—SH-SY5Y, liver—HepG2, and kidney—HEK-293. […] A series of cytotoxicity assays included assessments of mitochondrial activity, lysosomal activity, cell membrane integrity, DNA synthesis, and cell proliferation. Based on the obtained results, IC50 values for doxycycline, both in monotherapy and in combination with CBD, were calculated, along with evaluations of ROS, death of cells, and morphology. The interaction between the drug and CBD was further analyzed by the combination index (CI).
(§2) The metabolic activity of viable cells was assessed by measuring dehydrogenase activity. After exposing the cell cultures to the test compounds, 10 µL of MTT solution (5 mg/mL in PBS) was added to each well of a 96-well plate. After 3 h of incubation, the MTT solution was removed, and the intracellular formazan was dissolved in 100 µL of DMSO. The plate was shaken for 15 min at room temperature and transferred to a Synergy 2 Multi-Mode Microplate Reader (BioTek® Instruments Inc., Winooski, VT, USA) to measure absorbance at 570 nm, using a blank as reference. Cytotoxicity was expressed as a percentage relative to the negative control.
(§3) To determine the types of interaction that occur when cells are exposed to combinations of DOX and CBD, the method established by Chou and Talalay was used in this study. The dose–effect relationships of the individual and combined test compounds were modeled biometrically using the Median-Effect Equation based on the Mass Action Law.fa/fu = (D/Dm)^m
(§4) In this isobolographic analysis, the combination index (CI) is a quantitative parameter used to evaluate the type and strength of interactions between multiple compounds. For all combinations, CI values were calculated across a range of affected fractions (Fa) from 0.05 to 0.95 (corresponding to 5–95% toxicity). CI values of 0.9–1.1, <0.9, and >1.1 indicate additive, synergistic, and antagonistic effects, respectively.
(§5) The study was conducted in three independent experiments (n = 3). […] Cytotoxicity data were analyzed using one-way analysis of variance (ANOVA), followed by Dunnett’s post hoc test to assess significance relative to the negative control. The half-maximal inhibitory concentration (IC50), representing the drug or drug–CBD mixture concentration required to inhibit cell viability by 50%, was calculated using GraphPad Prism 5.0. Statistical comparisons between IC50 values were performed using ANOVA followed by Tukey’s post hoc test. Differences were considered statistically significant at p ≤ 0.05.

[14] = tested on: HEK-293 cells; assay: mitochondrial activity (MTT assay)
Protocol: as §1, §2, §3, §4, §5

[15] = tested on: SH-SY5Y cells; assay: mitochondrial activity (MTT assay); details: 72 h
Protocol: as §1, §2, §3, §4, §5

[16] = tested on: HepG2 cells; assay: lysosomal activity (NRU assay)
Protocol: as §1
(§6) This method is based on staining viable cells with neutral red, a dye that readily diffuses through the plasma membrane and accumulates in lysosomes. After incubation with the test compounds, the medium containing the substances was removed, and the cells were washed with PBS. Subsequently, 100 µL/well of neutral red (NR) solution (50 µg/mL) was added and incubated for 3 h. After incubation, the cells were washed again with PBS. The dye retained in viable cells was extracted using a solution of acetic acid, ethanol, and water (1:50:49, v/v/v). After 10 min of shaking, the absorbance of the extracted dye was measured at 540 nm using a Synergy 2 Multi-Mode Microplate Reader (BioTek® Instruments Inc., Winooski, VT, USA), with a blank as reference. Cytotoxicity was expressed as a percentage relative to the negative control.
as §3, §4, §5

[17] = tested on: HEK-293 cells; assay: lysosomal activity (NRU assay)
Protocol: as §1, §6, §3, §4, §5

[18] = tested on: SH-SY5Y cells; assay: lysosomal activity (NRU assay); details: 72 h
Protocol: as §1, §6, §3, §4, §5

Compound: C[C@H]1c2cccc(O)c2C(=O)C2=C(O)[C@]3(O)C(=O)C(C(N)=O)=C(O)[C@@H](N(C)C)[C@@H]3[C@@H](O)[C@@H]21 [DOX, doxycycline hyclate]
- concentration causing about a 50% reduction in cell viability ([1]; HepG2, converted value in brackets): 10.3 to 13.0 µg/mL
- IC50 ([1]; HepG2, read-out: concentration causing about a 50% reduction in cell viability): 20 to 25 µM
- effect on DNA synthesis [2]: inhibited DNA synthesis
- effect of extended incubation on human cell lines ([3]; 96 h, 0.1 to 10 µg/mL, increased lactate production and decreased oxygen consumption): cytotoxic effects
- concentration observed to inhibit proliferation and induce apoptotic cell death ([3]; tested human cell cultures): 1000 ng/mL
- IC50 of mitochondrial inhibition ([4]; converted value in brackets): 10.3 µg/mL
- IC50 ([4]; read-out: IC50 of mitochondrial inhibition): 20 µM
- apoptotic and necrotic cell fractions [5]: increased apoptotic and necrotic cell fractions; also recorded: significant increase in apoptotic and necrotic cells
- effect on production of reactive oxygen species (ROS) [6]: protective effect
- IC50 [7]: 8.9 to 30.4 µg/mL (≈ 20 to 68.4 µM)
- IC50 [8]: 13.4 to 200 µg/mL (≈ 30.2 to 450 µM)
- effect on cell viability ([9]; HEK-293, 20 µg/mL): reduces the viability
- induction of apoptosis ([9]; HEK-293, 20 µg/mL): does not induce apoptosis
- IC50 ([9]; converted value in brackets): 6.05 µg/mL
- IC50 ([9]; read-out: IC50): 11.8 µM
- concentration that significantly inhibited protein synthesis and mitochondrial complex activity ([10]; cells of neoplastic origin): 5 µg/mL
- concentration that induced apoptosis ([10]; renal cancer cells): 10 µg/mL
- effect on mitochondrial membrane [11]: depolarized the mitochondrial membrane
- IC50 ([12]; converted value in brackets): 1.9 µg/mL
- IC50 ([12]; read-out: IC50): 3.7 ± 0.1 µM
- doxycycline concentration that impaired mitochondrial function ([13]; HepG2, MTT, 72 h): 50 µg/mL
- IC50 ([13]; Homo sapiens, HepG2, 72 h): > 200 µg/mL
- doxycycline concentration that inhibited mitochondrial activity ([14]; HEK-293, MTT, 72 h): 6.25 µg/mL
- IC50 ([14]; Homo sapiens, HEK293, 72 h): 17.4 ± 1 µg/mL
- IC50 ([15]; Homo sapiens): 9.8 ± 0.9 µg/mL
- doxycycline concentration from which mitochondrial activity was inhibited ([15]; MTT, p ≤ 0.05 vs negative control): 6.25 µg/mL
- doxycycline concentration that inhibited lysosomal activity ([16]; HepG2, NRU, 72 h): 25 µg/mL
- IC50 ([16]; Homo sapiens, HepG2, 72 h): 13.4 ± 0.9 µg/mL
- doxycycline concentration that inhibited lysosomal activity ([17]; HEK-293, NRU, 72 h): 6.25 µg/mL
- IC50 ([17]; Homo sapiens, HEK293, 72 h): 12.7 ± 1 µg/mL
- IC50 ([18]; Homo sapiens): > 200 µg/mL
- doxycycline concentration at which lysosomal activity was inhibited ([18]; NRU): 50 µg/mL
